This note sets out measurements from the METLIN SMRT retention time set (Domingo-Almenara et al. 2019).

The series can be described thus: gradient 5% acetonitrile 3 min, to 50% in 2 min, to 85% in 15 min, held 3 min, 100 µL/min. To be noted: column: Zorbax Extend-C18 2.1 x 50 mm; eluents: water / acetonitrile, 0.1% formic acid. An outline of the steps: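 Using water and acetonitrile that each contained 0.1% formic acid, mixtures of ~100 pure standards were separated at 100 μL/min on a Zorbax Extend-C18 column (2.1 × 50 mm, 1.8 μm). The HPLC fed a quadrupole time-of-flight mass spectrometer working in positive and negative ionization mode, with dead and dwell volumes of 40 μL and 900 μL. Data were acquired over 3 months. Retention time was read from computationally picked adduct peaks after manual inspection of each.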
On to `CC(C)CC(=O)N1CCC(Cc2nnc(-c3ccccc3)o2)CC1`, for which the RP-LC retention time was 818 s.

The molecule `COc1ccc(NC(=O)CCc2cccc3[nH]ccc23)cc1OC` came in with an RP-LC retention time of 755 s. The result for `CCOC(=O)C1CCCN(CC(=O)Nc2nc(-c3ccccc3)cs2)C1` (stereo unspecified) reads 690 s; that for `CN1CCN(C(=O)c2csc(N3CCN(c4cccc(Cl)c4)CC3)n2)CC1`, 690 s; that for `O=C(c1ccc(Cl)cc1)N1CCC(n2c(-c3ccco3)nc3cccnc32)C1` (stereo unspecified), 805 s. In the case of `CCOC(=O)c1c(C)nn(Cc2cccc(Cl)c2)c1N` it was 884 s. In the case of `O=C(NCCc1cccs1)c1cc2n(n1)CCCN(Cc1ccc(F)cc1)C2=O` it was 868 s. In turn, `CSc1ccc(N2C(C)=NS(=O)(=O)c3cccnc32)cc1` returned an RP-LC retention time of 811 s. In the case of `CCCc1nc(-c2c(C)cc(C)nc2NC(=O)c2cc(F)cc(F)c2)no1` it was 938 s.

The molecule `Cc1cc2c(OCC(CNC(C)(C)C)OC(=O)c3ccccc3)cccc2[nH]1` (stereo unspecified) came in with an RP-LC retention time of 799 s. `CCOc1ccc(-c2cn3ccn(-c4ccc(OCC)cc4)c(=O)c3n2)cc1` registered an RP-LC retention time of 896 s. The result for `CN1C[C@@H]2c3ccccc3Oc3ccc(Cl)cc3[C@H]2C1` reads 758 s; that for `CNC(=O)[C@@H]1C[C@H](Oc2ccccc2)CN1C(=O)CCCc1c[nH]c2ccccc12`, 800 s. In the case of `COc1ccc(C2(C(=O)N3CCN(C(=O)N4C[C@H]5C[C@H](C4)[C@H]4CCCC(=O)N4C5)CC3)CC2)cc1` it was 696 s; in that of `CCOCC(=O)N1CCCN(C2=NS(=O)(=O)C(c3ccccc3)=C2C)CC1`, 688 s.

Molecule `Cc1ccc(CNc2c(-c3ccc(C(C)C)cc3)nc3ncccn23)cc1` returned an RP-LC retention time of 907 s.

In turn, `CCCCNC(=O)C1CCC(=O)N(c2ccc(OC)cc2)C1c1ccc(F)cc1` (stereo unspecified) showed an RP-LC retention time of 757 s. Molecule `CCN1C(=O)c2cc(S(=O)(=O)Nc3ccc(C)cc3)ccc2Oc2cccnc21` yielded an RP-LC retention time of 970 s.

The molecule `CCC1CCCCN1CCNC(=O)CCc1cc2ccc(C)cc2[nH]c1=O` (stereo unspecified) displayed an RP-LC retention time of 621 s. With `CC(=O)NCCCOc1ccc([N+](=O)[O-])cc1Cl`, the RP-LC retention time was determined as 786 s. In the case of `COc1ccccc1-c1nc2cnccn2c1NCCC(=O)N(C)C` it was 596 s. In the case of `Cc1ccc2c(Nc3ccc(C(C)C)cc3)c(C(=O)N3CCC(C)CC3)cnc2n1` it was 737 s; in that of `COc1cc(C(=O)N(Cc2cccs2)C2CCS(=O)(=O)C2)cc(OC)c1OC` (stereo unspecified), 702 s. As for `O=C(c1ccc(Br)cc1)N1CCN(C(=O)c2cc(-c3ccncc3)n[nH]2)CC1`, the RP-LC retention time was 616 s. `Nc1cc(C2CCN(S(=O)(=O)Cc3cccc(F)c3)CC2)no1`: the RP-LC retention time amounted to 742 s.

Molecule `CCn1c(=O)c2ccn(CC(=O)Nc3cc(C)ccn3)c2n(CC)c1=O` registered an RP-LC retention time of 644 s. `Cc1cccc(C(=O)N2C[C@@H](F)C[C@H]2C(=O)N2CCOCC2)c1` showed an RP-LC retention time of 620 s. In the case of `Cc1ccc(CNC(=O)N2CCC(C(=O)NCc3csc(C)n3)CC2)cc1` it was 661 s; in that of `O=C(O)c1ccc(CCCc2ccc(OCCc3ccc(F)cc3)cc2)o1`, 1090 s; in that of `Cc1noc(CNC(=O)CN(C)c2nc3c(F)cccc3s2)n1`, 667 s. For `Cc1cccc(-c2ncccc2CNS(=O)(=O)Cc2ccccc2F)c1`, the RP-LC retention time is 705 s. The result for `Cn1c(C#N)ccc1-c1ccc2c(c1)C(C)(C)OC(=S)N2` reads 989 s; that for `CCCn1c(=O)sc2cc(S(=O)(=O)N3CCC(C(=O)NCC4CCCO4)CC3)ccc21` (stereo unspecified), 763 s; that for `CCC(=O)N1CCc2cc(S(=O)(=O)CCC(=O)N3CC(C)CC(C)C3)ccc21` (stereo unspecified), 871 s. The result for `CC(C)(C)OC(=O)N1CCN(c2ncc(C(=O)Nc3ccccc3)c(N)n2)CC1` reads 760 s; that for `Cc1cc(C)n(Cc2ccc(C(=O)N3CCN(c4ccc(=O)n(-c5ccccc5)n4)CC3)o2)n1`, 706 s. The result for `CCOC(=O)N1CCC2(CC1)N=C(c1ccc(F)cc1)CC(c1cccc(OC)c1O)N2` (stereo unspecified) reads 748 s; that for `CCn1c(SCC(=O)N2CCCCC2)nnc1-c1ccc2c(c1)OCCCO2`, 734 s; that for `CCC(C(=O)N1CCC(C)CC1)n1cnc2onc(-c3ccc(Cl)cc3)c2c1=O` (stereo unspecified), 1280 s. In turn, `CN(C)C(=O)c1ccc2oc(CN3CCN(C(=O)NCc4ccco4)CC3)nc2c1` gave an RP-LC retention time of 582 s. The result for `Cn1c(=O)c2c(nc(Cc3ccccc3)n2C)n(C)c1=O` reads 764 s; that for `Cc1oc(C2CCN(C(=O)Cc3cccs3)CC2)nc1C(=O)N1CCSCC1`, 742 s.

With `CCN1CCN(CCCNC(=O)c2c(N3CCCC3=O)c3cc(F)ccc3n2CC)CC1`, the RP-LC retention time was 602 s. In the case of `COc1ccc(C2Cn3nnc(C(=O)NC4CCCCCC4)c3CO2)cc1` (stereo unspecified) it was 1040 s; in that of `O=C(c1cc(-c2ccncc2)n[nH]1)N1CCN(C(=O)C2CCCC2)CC1`, 588 s; in that of `CCCCN(C)C(=O)Cn1nc(C)c2c(C)n(-c3ccccc3)nc2c1=O`, 787 s. The result for `Cc1cc(C)cc(S(=O)(=O)N2CCC3(CC2)NCCN=C3NCc2ccc(F)cc2)c1` reads 753 s; that for `COCCNC(=O)C1CCN(c2cnc(N3CCCC3)nc2)CC1`, 580 s. The result for `CN1C(=O)[C@H]2CN(Cc3ccccc3OC(F)(F)F)C[C@H]2C1=O` reads 691 s. `Cc1cc(C(=O)N2CCCCC2)c2c(=O)n(CC(=O)N(C)c3ccccc3)c(=O)n(C)c2n1` had an RP-LC retention time of 812 s.

`Cc1noc(-c2ccc(OC3CN(C(=O)c4sccc4C)C3)cc2)n1` had an RP-LC retention time of 900 s. Molecule `CSc1ccc(Cl)c(-c2nc(-c3cccc(-c4ccnn4C)c3)no2)c1` had an RP-LC retention time of 1300 s. The molecule `COc1ccc(-c2noc(Cn3nc(-c4ccc(Cl)cc4)ccc3=O)n2)cc1` registered an RP-LC retention time of 1080 s. As for `CNC(=O)c1sc2nc(-c3cccc(OC)c3)c(NC(C)(C)C)n2c1C`, the RP-LC retention time was 780 s.

`COc1ccc(C2(C(=O)N3CCCC(CO)CCNC(=O)CC3)CC2)cc1` (stereo unspecified) registered an RP-LC retention time of 622 s. In the case of `CC(C)(CO)NC(=O)Cc1ccc(NC(=O)c2ccc(Cl)s2)cc1` it was 704 s. The result for `CCSc1nnc(NC(=O)CSc2ncnc3ccccc23)s1` reads 733 s; that for `Cc1sc(C)c(S(=O)(=O)N2CCCc3ccccc32)c1-c1cc(C(F)(F)F)on1`, 1290 s. On to `Cc1cc(=O)n(CCc2ccccc2)c(N2CCCC2)n1`, for which the RP-LC retention time is 742 s. For the molecule `Cc1[nH]c2ccccc2c1C(=O)C(=O)NC1CCCCC1`, the RP-LC retention time was 798 s.

For the molecule `CCc1ccc2nc(Nc3ncc4c(n3)CC(c3ccccc3)CC4=O)nc(C)c2c1` (stereo unspecified), the RP-LC retention time is 636 s. On to `Cc1cc(C)c2c(N3CCSCC3)nc(C(=O)NCCCN3CCCC3)nc2n1`, for which the RP-LC retention time was found to be 552 s. For the molecule `CC1=C(c2ccccc2)S(=O)(=O)N=C1N1CCCN(C(=O)c2cccs2)CC1`, the RP-LC retention time came to 770 s. In the case of `COCCN1C(=O)CCc2cc(NS(=O)(=O)c3ccc(F)c(C)c3)ccc21` it was 800 s; in that of `CCn1ncc(NC(=O)c2ccc(Br)cc2)c(N2CCOCC2)c1=O`, 884 s. The molecule `COc1ccc(Cl)cc1NC(=O)C1(c2cccs2)CCCC1` showed an RP-LC retention time of 1280 s.

For `CCOC(=O)c1c(C)oc2nc(C)nc(NCCCN(CC)c3ccccc3)c12`, the RP-LC retention time was found to be 825 s.

With `CN(Cc1ccccc1)c1ccc(-c2noc(CN3CCCC3)n2)cn1`, the RP-LC retention time was 675 s. In turn, `CCc1ccc(CNC(=O)Cc2nnc(-c3ccccn3)o2)cc1` yielded an RP-LC retention time of 743 s. In the case of `COCCCNC(=O)C1CCC(=O)N(c2cc(OC)c(OC)c(OC)c2)C1c1ccc(OC)cc1` (stereo unspecified) it was 572 s; in that of `COc1ccc(Cl)cc1NC(=O)NCCc1ccc(N(C)C)cc1`, 637 s; in that of `Cc1cccc(C)c1NC(=O)C1CCCN1S(=O)(=O)c1cc2c(cc1Cl)NC(=O)CO2` (stereo unspecified), 778 s.

`CN(C1CCC1)C1CCc2nn(Cc3ccccc3)c(=O)n2CC1` (stereo unspecified): the RP-LC retention time is 590 s.

`Cc1ccc(OCC(=O)NCc2ccc(F)cc2)nn1` showed an RP-LC retention time of 607 s.

For `CC(C)(C)C(=O)N1CCN(CC(F)(F)F)CC1`, the RP-LC retention time worked out at 746 s. In the case of `COc1cc(C2CC(=O)N(CC(=O)N3CCCC3)c3ccccc3S2)cc(OC)c1OC` (stereo unspecified) it was 792 s; in that of `Cc1ccc(CNC(=O)C2CCN(S(=O)(=O)c3ccc4c(c3)sc(=O)n4C)CC2)cc1`, 862 s. The result for `Cc1cccc(-c2nnc(-c3cc(S(=O)(=O)N(C)C)ccc3Cl)o2)c1` reads 1050 s. The result for `COc1ccccc1NC(=O)N1CCC(CNS(=O)(=O)Cc2cccc(F)c2)CC1` reads 787 s. Molecule `Cc1nnc2c(NC(=O)c3cc(F)ccc3F)cccn12` displayed an RP-LC retention time of 705 s. The result for `Cc1ccc(N2C(=O)C3N=NN(c4ccccc4)C3C2=O)cc1C` (stereo unspecified) reads 1010 s.
